Values quoted from earlier work as cited in PubChem BioAssay AID1259409 (Chemical Carcinogenesis Research Information System (CCRIS), 2018).

Tested on: rodent chemically induced tumor inhibition, incidence and multiplicity
Assay: CCRIS tumor inhibitor studies

Structure (SMILES): CC1=C(/C=C/C(C)=C/C=C/C(C)=C/C(=O)O)C(C)(C)CCC1
- tumour outcome (control, treated, inhibition, significance) (Carcinogen: 7,12-DIMETHYLBENZ[A]ANTHRACENE, 57-97-6, Dose [Inhibitor]: 68 NMOL IN 0.2 ML ACETONE ONCE 1 HR BEFORE APPLICATION OF CARCINOGEN (STUDY DURATION: 21 WK), Route [Inhibitor]: DERMAL, Species: MOUSE, Strain/Sex: CD-1/FEMALE, Target Tissue: Type of Lesion: SKIN: PAPILLOMA, Dose [Carcinogen]: 0.2 UMOL IN 0.2 ML ACETONE ONCE, Promoter: 12-O-TETRADECANOYLPHORBOL-13-ACETATE, 16561-29-8): 95%, 92%, 3%, not significant
- tumour outcome (control, treated, inhibition, significance) (Carcinogen: 7,12-DIMETHYLBENZ[A]ANTHRACENE, 57-97-6, Dose [Inhibitor]: 170 NMOL IN 0.2 ML ACETONE 1 HR PRIOR TO EACH PROMOTER DOSE FOR 12 WK (STUDY DURATION: 14 WK), Route [Inhibitor]: DERMAL, Species: MOUSE, Strain/Sex: SENCAR/FEMALE, Target Tissue: Type of Lesion: SKIN: PAPILLOMA, Dose [Carcinogen]: 200 NMOL IN 0.2 ML ACETONE ONCE, Promoter: 12-O-TETRADECANOYLPHORBOL-13-ACETATE, 16561-29-8): 100%, 87%, 13%, not calculated
- tumour outcome (control, treated, inhibition, significance) (Carcinogen: 7,12-DIMETHYLBENZ[A]ANTHRACENE, 57-97-6, Dose [Inhibitor]: 170 NMOL IN 0.2 ML ACETONE 1 HR PRIOR TO EACH PROMOTER DOSE FOR 20 WK (STUDY DURATION: 22 WK), Route [Inhibitor]: DERMAL, Species: MOUSE, Strain/Sex: CD-1/FEMALE, Target Tissue: Type of Lesion: SKIN: PAPILLOMA, Dose [Carcinogen]: 200 NMOL IN 0.2 ML ACETONE ONCE, Promoter: 12-O-TETRADECANOYLPHORBOL-13-ACETATE, 16561-29-8): 94%, 63%, 33%, not calculated
- tumour outcome (control, treated, inhibition, significance) (Carcinogen: DIETHYLNITROSAMINE, 55-18-5, Dose [Inhibitor]: 0, 10000 IU/KG IN CORN OIL FOR DURATION OF STUDY BEGINNING 7 D PRIOR TO FIRST CARCINOGEN DOSE (STUDY DURATION: 6 MO), Route [Inhibitor]: GAVAGE, Species: RAT, Strain/Sex: BD6/FEMALE, Target Tissue: Type of Lesion: ESOPHAGUS: TUMOR, Dose [Carcinogen]: 80 MG/KG BW 1/WK FOR 8 WK, Promoter: NONE USED): 20%, 13%, 35%, not significant
- tumour outcome (control, treated, inhibition, significance) (Carcinogen: DIETHYLNITROSAMINE, 55-18-5, Dose [Inhibitor]: 0, 10000 IU/KG IN CORN OIL FOR DURATION OF STUDY BEGINNING 7 D PRIOR TO FIRST CARCINOGEN DOSE (STUDY DURATION: 6 MO), Route [Inhibitor]: GAVAGE, Species: RAT, Strain/Sex: BD6/FEMALE, Target Tissue: Type of Lesion: LIVER: TUMOR, Dose [Carcinogen]: 80 MG/KG BW 1/WK FOR 8 WK, Promoter: NONE USED): 83%, 91%, -10%, not significant
- tumour outcome (control, treated, inhibition, significance) (Carcinogen: DIETHYLNITROSAMINE, 55-18-5, Dose [Inhibitor]: 0, 20000 IU/KG IN CORN OIL FOR DURATION OF STUDY BEGINNING 7 D PRIOR TO FIRST CARCINOGEN DOSE (STUDY DURATION: 6 MO), Route [Inhibitor]: GAVAGE, Species: RAT, Strain/Sex: BD6/FEMALE, Target Tissue: Type of Lesion: ESOPHAGUS: TUMOR, Dose [Carcinogen]: 80 MG/KG BW 1/WK FOR 8 WK, Promoter: NONE USED): 30%, 13%, 57%, not significant
- tumour outcome (control, treated, inhibition, significance) (Carcinogen: DIETHYLNITROSAMINE, 55-18-5, Dose [Inhibitor]: 0, 20000 IU/KG IN CORN OIL FOR DURATION OF STUDY BEGINNING 7 D PRIOR TO FIRST CARCINOGEN DOSE (STUDY DURATION: 6 MO), Route [Inhibitor]: GAVAGE, Species: RAT, Strain/Sex: BD6/FEMALE, Target Tissue: Type of Lesion: LIVER: TUMOR, Dose [Carcinogen]: 80 MG/KG BW 1/WK FOR 8 WK, Promoter: NONE USED): 85%, 93%, -9%, not significant
- tumour outcome (control, treated, inhibition, significance) (Carcinogen: N-METHYL-N'-NITRO-N-NITROSOGUANIDINE, 70-25-7, Dose [Inhibitor]: 0, 0.75 MG/KG BW 1/2 D FOR 26 WK BEGINNING POST CARCINOGEN TREATMENT (STUDY DURATION: 52 WK), Route [Inhibitor]: SUBCUTANEOUS, Species: RAT, Strain/Sex: WISTAR/MALE, Target Tissue: Type of Lesion: STOMACH: ADENOCARCINOMA, Dose [Carcinogen]: 25 UG/ML IN DRINKING WATER FOR 25 WK, Promoter: SODIUM CHLORIDE, 7647-14-5): 17/20 (85%), 8/20 (40%), 53% p<0.01
- tumour outcome (control, treated, inhibition, significance) (Carcinogen: N-METHYL-N'-NITRO-N-NITROSOGUANIDINE, 70-25-7, Dose [Inhibitor]: 0, 1.5 MG/KG BW 1/2 D FOR 26 WK BEGINNING POST CARCINOGEN TREATMENT (STUDY DURATION: 52 WK), Route [Inhibitor]: SUBCUTANEOUS, Species: RAT, Strain/Sex: WISTAR/MALE, Target Tissue: Type of Lesion: STOMACH: ADENOCARCINOMA, Dose [Carcinogen]: 25 UG/ML IN DRINKING WATER FOR 25 WK, Promoter: SODIUM CHLORIDE, 7647-14-5): 17/20 (85%), 7/20 (35%), 59%, p<0.01
- tumour outcome (control, treated, inhibition, significance) (Carcinogen: N-NITROSO-N-METHYLUREA, 684-93-5, Dose [Inhibitor]: 0, 60 MG/KG OF DIET FOR 3 MO BEGINNING 1 WK POST CARCINOGEN DOSE (STUDY DURATION: 100 D), Route [Inhibitor]: ORAL, Species: RAT, Strain/Sex: SPRAGUE-DAWLEY/FEMALE, Target Tissue: Type of Lesion: MAMMARY GLAND: TUMOR, Dose [Carcinogen]: 50 MG/KG BW ONCE, Promoter: NONE USED): 100%, 92%, 8%, not significant
- tumour outcome (control, treated, inhibition, significance) (Carcinogen: N-NITROSO-N-METHYLUREA, 684-93-5, Dose [Inhibitor]: 0, 120 MG/KG OF DIET FOR 13 MO BEGINNING 1 WK POST CARCINOGEN DOSE (STUDY DURATION: 100 D), Route [Inhibitor]: ORAL, Species: RAT, Strain/Sex: SPRAGUE-DAWLEY/FEMALE, Target Tissue: Type of Lesion: MAMMARY GLAND: TUMOR, Dose [Carcinogen]: 50 MG/KG BW ONCE, Promoter: NONE USED): 100%, 83%, 17%, not significant
